This passage reports IC50 and MIC results from publication PMC10672575, “The Polyketides with Antimicrobial Activities from a Mangrove Endophytic Fungus Trichoderma lentiforme ML-P8-2” (Marine Drugs, 2023).

The target in series [1] is AChE (Homo sapiens, UniProt P22303). Description: biochemical. The conditions noted are these: average of two independent experiments; read-out: IC50 for AChE inhibitory activities. On the procedure:
Donepezil hydrochloride was taken as a positive control. All measurements were conducted in triplicate from two independent experiments. The reported IC50 was the average value of two independent experiments.

For series [2], the system named is Candida albicans. As to the kind of experiment: Antifungal MIC, serial dilution in 96-well plates.
Description: (§1) All measurements were conducted in triplicate. Ampicillin and ketoconazole were applied as positive controls for antibacterial and antifungal assays, respectively, and DMSO was utilized as a blank control.
Series [3] deals with Penicillium italicum. As to the kind of experiment: Antifungal MIC, serial dilution in 96-well plates.
Series [4] has as its system methicillin-resistant Staphylococcus aureus (MRSA). Description: Antibacterial MIC, serial dilution in 96-well plates.
Description: as §1
Series [5] has as its system Staphylococcus aureus. The description is as above.
Description: as §1
Series [6] relates to Bacillus subtilis. The description is as above.
Description: as §1
Series [7] deals with Salmonella typhimurium. The description is as above. The conditions noted are these: Salmonella enterica.
Description: as §1
Series [8] concerns Pseudomonas aeruginosa. Described as above.
Description: as §1
Series [9] in a line: Cytotoxicity, MTT assay. The class given is cell-based. The conditions noted are these: human, A549 lung cancer cells. On the procedure: The cytotoxicities of compounds 1–10 and eujavanicol A on cells were assessed using MTT assay as described previously. Six cell lines were used, MDA-MB-435 (breast cancer cells), MDA-MB-231 (breast cancer cells), HCT116 (colon cancer cells), A549 (lung cancer cells), SNB19 (glioma cells), and PC3 (prostate cancer cells), which were acquired from Fu Erbo Biotechnology Co., Ltd. (Guangzhou, China).

In brackets after ≈: the same amount, converted by molar mass.

For orientation: IC50 means the concentration at which inhibition is half-maximal. For orientation: MIC means the lowest concentration that inhibits growth of the organism. High values mean a less susceptible organism, low ones a more susceptible organism.

Sequence of AChE (P22303 32-614): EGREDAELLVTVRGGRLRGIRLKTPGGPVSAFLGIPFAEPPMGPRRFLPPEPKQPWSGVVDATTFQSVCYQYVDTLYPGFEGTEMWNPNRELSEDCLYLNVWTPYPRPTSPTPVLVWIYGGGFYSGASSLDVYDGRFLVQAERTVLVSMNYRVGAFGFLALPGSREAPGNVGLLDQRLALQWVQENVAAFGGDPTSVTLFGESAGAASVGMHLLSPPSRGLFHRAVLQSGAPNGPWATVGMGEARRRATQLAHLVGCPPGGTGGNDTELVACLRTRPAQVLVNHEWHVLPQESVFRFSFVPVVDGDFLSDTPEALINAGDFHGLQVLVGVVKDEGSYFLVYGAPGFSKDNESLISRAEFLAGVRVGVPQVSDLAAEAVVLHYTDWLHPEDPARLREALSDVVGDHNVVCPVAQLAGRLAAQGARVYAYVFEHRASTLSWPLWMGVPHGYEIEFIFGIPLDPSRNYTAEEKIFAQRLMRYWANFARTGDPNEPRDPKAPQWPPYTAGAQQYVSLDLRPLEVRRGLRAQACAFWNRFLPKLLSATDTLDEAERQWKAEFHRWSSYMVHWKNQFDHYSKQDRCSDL

Regarding `CC[C@@H](C)[C@H]1C=C[C@H]2[C@H](O)[C@H](O)C[C@@H](C)[C@@H]2[C@@]1(C)C(=O)CCO` [Eujavanicol A, eujavanicol A], in series [1], the IC50 is 32.4 ± 0.7 µM. Also, the MIC was 25 µM (≈ 8.11 µg/mL) in [2]; 25 µM (≈ 8.11 µg/mL) in series [3]; greater than 100 µM in series [4]; greater than 100 µM in series [5]; greater than 100 µM in series [6]; greater than 100 µM in series [7]. The same molecule showed an MIC in [8] greater than 100 µM.
`COc1cc(O)c2c(=O)c(CO)c(C)oc2c1` [Compound 3, 5-hydroxy-3-(hydroxymethyl)-7-methoxy-2-methyl-4H-chromen-4-one]: the IC50 in [1] turned out to be 20.6 ± 0.3 µM. For the same molecule, the MIC in series [2] was 25 µM (≈ 5.91 µg/mL); in series [3], greater than 100 µM; in series [4] it was greater than 100 µM; in [5], greater than 100 µM; in series [6] it was greater than 100 µM; in series [7] it was greater than 100 µM. Also, in series [8], the MIC was greater than 100 µM.
For `CC[C@@H](C)[C@H]1C=C[C@H]2[C@H](O)[C@H](OC(=O)C/C(C)=C/C(=O)O)C[C@@H](C)[C@@H]2[C@@]1(C)C(=O)CCO` [Compound 9, tandyukisin G], the IC50 in [1] came out at 43.6 ± 0.4 µM. For the same molecule, the MIC is 25 µM (≈ 11.3 µg/mL) in series [2]; 6.25 µM (≈ 2.82 µg/mL) in series [3]; greater than 100 µM in series [4]; 50 µM (≈ 22.5 µg/mL) in series [5]; greater than 100 µM in series [6]; greater than 100 µM in [7]. In [8], this molecule had an MIC of 50 µM (≈ 22.5 µg/mL).
On to `CCC(C)C1C=CC2C(O)C(OC(=O)C=C(C)CC(=O)O)CC(C)C2C1(C)C(=O)CCO` (centres unmarked) [Compound 6, Tandyukisin J], for which the IC50 in series [1] was 40.2 ± 0.7 µM. Further, the MIC in series [2] is 25 µM (≈ 11.3 µg/mL); in [3], 6.25 µM (≈ 2.82 µg/mL); in series [4], greater than 100 µM; in series [5], greater than 100 µM; in series [6], greater than 100 µM; in series [7], greater than 100 µM. In [8], the MIC was greater than 100 µM.
Regarding `CC(=O)N1CCN(c2ccc(OCC3COC(Cn4ccnc4)(c4ccc(Cl)cc4Cl)O3)cc2)CC1` (centres unmarked) [Ketoconazole, reference compound], the values for the MIC in [2] and in series [3] were 0.13 µM (≈ 0.0691 µg/mL) and 1.56 µM (≈ 0.829 µg/mL), respectively.
For `CC[C@@H](C)[C@H]1C=C[C@H]2[C@H](OC(=O)C/C(C)=C\C(=O)O)[C@H](O)C[C@@H](C)[C@@H]2[C@@]1(C)C(=O)CCO` [Compound 10, tandyukisin C], the half-maximal inhibitory concentration (IC50) in [1] turned out to be 50.9 ± 0.5 µM. Besides, the MIC in [2] is 25 µM (≈ 11.3 µg/mL); in series [3] it was 50 µM (≈ 22.5 µg/mL); in series [4], greater than 100 µM; in series [5], greater than 100 µM; in series [6], greater than 100 µM; in [7], greater than 100 µM. In addition, the MIC in series [8] was greater than 100 µM.
As to `CC[C@@H](C)[C@H]1C=C[C@H]2[C@H](O)[C@H](OC(=O)/C=C(\C)CC(=O)O)C[C@@H](C)[C@@H]2[C@@]1(C)C(=O)CCO` [Compound 7, trichoharzin], the IC50 in series [1] stood at 38.3 ± 0.4 µM. Besides, the MIC in series [2] is 50 µM (≈ 22.5 µg/mL); in series [3], 12.5 µM (≈ 5.63 µg/mL); in series [4], greater than 100 µM; in [5], greater than 100 µM; in [6] it was greater than 100 µM; in series [7], greater than 100 µM. In series [8], this molecule yielded an MIC greater than 100 µM.
Turning to `CC1(C)S[C@@H]2[C@H](NC(=O)[C@H](N)c3ccccc3)C(=O)N2[C@H]1C(=O)O` [Ampicillin, reference compound], the MIC in [4] amounted to 0.25 µM (≈ 0.0874 µg/mL); in series [5], 0.25 µM (≈ 0.0874 µg/mL); in [6] it was 0.25 µM (≈ 0.0874 µg/mL); in series [7] it was 0.25 µM (≈ 0.0874 µg/mL); in [8], 0.13 µM (≈ 0.0454 µg/mL).
With `CC[C@@H](C)[C@H]1C=C[C@H]2[C@H](O)[C@H](OC(=O)C/C(C)=C\C(=O)O)C[C@@H](C)[C@@H]2[C@@]1(C)C(=O)CCO` [Compound 8, tandyukisin D], the IC50 in series [1] is 77.9 ± 1.7 µM. The MIC in series [2] is 50 µM (≈ 22.5 µg/mL); in series [3] it was 12.5 µM (≈ 5.63 µg/mL); in series [4], greater than 100 µM; in series [5], greater than 100 µM; in series [6] it was greater than 100 µM; in [7] it was 50 µM (≈ 22.5 µg/mL). In series [8], this molecule yielded an MIC of 50 µM (≈ 22.5 µg/mL).
In the case of `COc1cc(OC)c2c(=O)c(CO)c(C)oc2c1` [Compound 2, 3-(hydroxymethyl)-5,7-dimethoxy-2-methyl-4H-chromen-4-one], in series [1], the IC50 came to 33.7 ± 0.4 µM. The MIC is 100 µM (≈ 25 µg/mL) in series [2]; greater than 100 µM in series [3]; greater than 100 µM in series [4]; greater than 100 µM in [5]; greater than 100 µM in series [6]; greater than 100 µM in series [7]. The molecule also showed an MIC in [8] greater than 100 µM.
For the molecule `COc1cc(O)c2c(=O)c(C3CC(O)C(=O)O3)c(C)oc2c1` (centres unmarked) [Compound 1, 5-hydroxy-3-((3’R, 5’S)-3’-hydroxy-2’-oxotetrahydrofuran-5’-yl)-7-methoxy-2-methyl-4H-chromen-4-one], the values for the IC50 in [1] and in series [9] were 38.6 ± 0.2 µM and 47.2 ± 5.5 µM, respectively. Moreover, the MIC was 50 µM (≈ 15.3 µg/mL) in series [2]; greater than 100 µM in series [3]; greater than 100 µM in series [4]; greater than 100 µM in series [5]; greater than 100 µM in series [6]; greater than 100 µM in series [7]. This molecule returned an MIC in series [8] greater than 100 µM.
